Where a SMILES comes first, the peptide text is derived from it. The star is where a group is joined. Cam = NC(=O)C*
What was measured:
[1] = tested on: Human immunodeficiency virus 1; test: Antiviral activity against R5 tropic HIV1 JR-CSF in PM1/CCR5 cells assessed as protection from virus-induced cytopathogenicity measuring capsid p24 level after 5 days by ELISA; type: functional, cell-based; conditions: Human immunodeficiency virus 1, JRCSF ISOLATE, PM1/CCR5, 120 h
[2] = tested on: Human immunodeficiency virus 1; test: Antiviral activity against R5 tropic HIV1 NL(AD8) in PM1/CCR5 cells assessed as protection from virus-induced cytopathogenicity after 5 days by MTT assay; type: functional, organism-based; conditions: Human immunodeficiency virus 1, NL(AD8), PM1/CCR5, 120 h
[3] = tested on: Human immunodeficiency virus 1; test: Antiviral activity against X4 tropic HIV1 NL4-3 in MT4 cells assessed as protection from virus-induced cytopathogenicity after 5 days by MTT assay; type: functional, organism-based; conditions: Human immunodeficiency virus 1, NL4-3, MT4, 120 h
[4] = Cytotoxicity against human MT4 cells after 5 days by MTT assay; type: cell-based
[5] = tested on: Human immunodeficiency virus 1; test: Antiviral activity against R5 tropic HIV1 NL(AD8) in PM1/CCR5 cells assessed as protection from virus-induced cytopathogenicity at 50 uM after 5 days by MTT assay; type: functional; conditions: Human immunodeficiency virus 1, NL(AD8), PM1/CCR5, 120 h

Row | Structure (SMILES) | EC50 [1] [µM] | EC50 [2] [µM] | EC50 [3] [µM] | CC50 at 120 h [4] [µM] | inhibition at 50 µM [5] [%]
1 | COC[C@@H](c1ccc(C(F)(F)F)cc1)N1CCN(C2(C)CCN(C(=O)c3c(C)ncnc3C)CC2)C[C@@H]1C [VICRIVIROC] | 0.0014 | 0.026 |  |  | 
2 | Cc1cn([C@H]2C[C@H](N=[N+]=[N-])[C@@H](CO)O2)c(=O)[nH]c1=O [ZIDOVUDINE] | 0.17 | 0.459 | 0.02 | > 100 | 
3 | CC[C@H](C)[C@H](NC(=O)[C@H](CCCCN)NC(=O)[C@H](CCC(=O)O)NC(=O)[C@H](Cc1c[nH]c2ccccc12)NC(=O)[C@H](CCCCN)NC(=O)[C@H](CC(=O)O)NC(=O)[C@H](CC(C)C)NC(=O)[C@H](CCC(=O)O)NC(=O)CNC(C)=O)C(=O)N[C@@H](CCCNC(=N)N)C(=O)N[C@@H](CC(C)C)C(=O)N[C@@H](CCCNC(=N)N)C(=O)N1CCC[C@H]1C(=O)NCC(=O)NCC(=O)NCC(=O)N[C@@H](CSCC(N)=O)C(N)=O |  | 1 | 17 | > 50 | 
4 | CC(=O)N[C@@H](CC(C)C)C(=O)N[C@@H](CCC(=O)O)C(=O)N[C@@H](CCCNC(=N)N)C(=O)N[C@@H](Cc1ccccc1)C(=O)N[C@@H](C)C(=O)N[C@H](C(=O)N[C@@H](CC(N)=O)C(=O)N1CCC[C@H]1C(=O)NCC(=O)N[C@@H](CC(C)C)C(=O)N[C@@H](CC(C)C)C(=O)N[C@@H](CCC(=O)O)C(=O)N[C@H](C(=O)N[C@@H](CO)C(=O)N[C@@H](CCC(=O)O)C(=O)NCC(=O)N[C@@H](CSCC(N)=O)C(N)=O)[C@@H](C)O)C(C)C (Ac-LERFAVNPGLLETSEGC(Cam)-NH2) |  |  | > 50 | > 50 | 
5 | CC[C@H](C)[C@H](NC(=O)[C@H](Cc1cnc[nH]1)NC(=O)[C@H](CCCCN)NC(=O)[C@H](CC(C)C)NC(=O)[C@H](CCCCN)NC(=O)[C@H](Cc1ccc(O)cc1)NC(=O)[C@H](CCC(N)=O)NC(=O)[C@H](CCC(=O)O)NC(=O)[C@H](Cc1c[nH]c2ccccc12)NC(=O)[C@H](CCCCN)NC(=O)[C@H](CC(=O)O)NC(=O)[C@H](CC(C)C)NC(=O)[C@H](CCC(=O)O)NC(=O)CNC(C)=O)C(=O)N[C@H](C(=O)NCC(=O)N[C@@H](CSCC(N)=O)C(N)=O)C(C)C (Ac-GELDKWEQYKLKHIVGC(Cam)-NH2) |  |  | > 50 | > 50 | 
6 | CC[C@H](C)[C@H](NC(=O)[C@H](CCCCN)NC(=O)[C@H](CCC(=O)O)NC(=O)[C@H](Cc1c[nH]c2ccccc12)NC(=O)[C@H](CCCCN)NC(=O)[C@H](CC(=O)O)NC(=O)[C@H](CC(C)C)NC(=O)[C@H](CCC(=O)O)NC(=O)CNC(C)=O)C(=O)N[C@@H](CCCNC(=N)N)C(=O)N[C@@H](CC(C)C)C(=O)N[C@@H](CCCNC(=N)N)C(=O)N1CCC[C@H]1C(=O)NCC(=O)NCC(=O)NCC(=O)N[C@@H](CSCC(=O)N[C@@H](CCCNC(=N)N)C(=O)N[C@@H](CCCNC(=N)N)C(=O)N[C@@H](CCCNC(=N)N)C(=O)N[C@@H](CCCNC(=N)N)C(=O)N[C@@H](CCCNC(=N)N)C(=O)N[C@@H](CCCNC(=N)N)C(=O)N[C@@H](CCCNC(=N)N)C(=O)N[C@@H](CCCNC(=N)N)C(N)=O)C(N)=O |  | > 31 | 21 | 32 | 
7 | CC(=O)N[C@@H](CO)C(=O)N[C@@H](CCCCN)C(=O)N[C@@H](CCCCN)C(=O)N[C@@H](CCCCN)C(=O)N[C@@H](C)C(=O)N[C@@H](CCC(N)=O)C(=O)N[C@@H](CCC(N)=O)C(=O)N[C@@H](C)C(=O)N[C@@H](C)C(=O)N[C@@H](C)C(=O)N[C@@H](CC(=O)O)C(=O)N[C@H](C(=O)NCC(=O)N[C@@H](CC(N)=O)C(=O)N[C@@H](CC(N)=O)C(=O)NCC(=O)N[C@@H](CSCC(N)=O)C(N)=O)[C@@H](C)O |  |  | > 50 | > 50 | 
8 | CSCC[C@H](N)C(=O)NCC(=O)N[C@@H](C)C(=O)N[C@@H](CCCNC(=N)N)C(=O)N[C@@H](C)C(=O)N[C@@H](CO)C(=O)N[C@H](C(=O)N[C@@H](CC(C)C)C(=O)N[C@@H](CO)C(=O)NCC(=O)NCC(=O)N[C@@H](CCC(=O)O)C(=O)N[C@@H](CC(C)C)C(=O)N[C@@H](CC(=O)O)C(=O)N[C@@H](CCCCN)C(=O)NCC(=O)N[C@@H](CSCC(=O)N[C@@H](CCCNC(=N)N)C(=O)N[C@@H](CCCNC(=N)N)C(=O)N[C@@H](CCCNC(=N)N)C(=O)N[C@@H](CCCNC(=N)N)C(=O)N[C@@H](CCCNC(=N)N)C(=O)N[C@@H](CCCNC(=N)N)C(=O)N[C@@H](CCCNC(=N)N)C(=O)N[C@@H](CCCNC(=N)N)C(N)=O)C(N)=O)C(C)C | 40 | 30 | 30 | > 50 | 
9 | CC[C@H](C)[C@H](NC(=O)[C@H](Cc1cnc[nH]1)NC(=O)[C@H](CCCCN)NC(=O)[C@H](CC(C)C)NC(=O)[C@H](CCCCN)NC(=O)[C@H](Cc1ccc(O)cc1)NC(=O)[C@H](CCC(N)=O)NC(=O)[C@H](CCCCN)NC(=O)[C@H](CCCCN)NC(=O)CNC(=O)CNC(=O)[C@@H]1CCCN1C(=O)[C@H](CCCNC(=N)N)NC(=O)[C@H](CC(C)C)NC(C)=O)C(=O)N[C@H](C(=O)NCC(=O)N[C@@H](CSCC(N)=O)C(N)=O)C(C)C |  |  | > 50 | > 50 | 
10 | CC(=O)N[C@@H](CC(C)C)C(=O)NCC(=O)N[C@@H](CCC(N)=O)C(=O)N[C@@H](CC(C)C)C(=O)N[C@@H](CCC(N)=O)C(=O)N1CCC[C@H]1C(=O)N[C@@H](CO)C(=O)N[C@@H](CC(C)C)C(=O)N[C@@H](CCC(N)=O)C(=O)N[C@H](C(=O)NCC(=O)N[C@@H](CO)C(=O)N[C@@H](CCC(=O)O)C(=O)N[C@@H](CCC(=O)O)C(=O)N[C@@H](CC(C)C)C(=O)NCC(=O)N[C@@H](CSCC(N)=O)C(N)=O)[C@@H](C)O (Ac-LGQLQPSLQTGSEELGC(Cam)-NH2) |  |  | > 50 | > 50 | 
11 | CC[C@H](C)[C@H](NC(=O)[C@H](CCCCN)NC(=O)[C@H](CC(=O)O)NC(=O)[C@H](CC(C)C)NC(C)=O)C(=O)N[C@@H](CCC(=O)O)C(=O)N[C@@H](CCC(=O)O)C(=O)N[C@@H](CCC(=O)O)C(=O)N[C@@H](CCC(N)=O)C(=O)N[C@@H](CC(N)=O)C(=O)N[C@@H](CCCCN)C(=O)N[C@@H](CO)C(=O)N[C@@H](CCCCN)C(=O)N[C@@H](CCCCN)C(=O)N[C@@H](CCCCN)C(=O)N[C@@H](C)C(=O)NCC(=O)N[C@@H](CSCC(N)=O)C(N)=O (Ac-LDKIEEEQNKSKKKAGC(Cam)-NH2) |  |  | > 50 | > 50 | 
12 | CC(=O)N[C@@H](CC(=O)O)C(=O)N[C@H](C(=O)NCC(=O)N[C@@H](CC(N)=O)C(=O)N[C@@H](CC(N)=O)C(=O)N[C@@H](CO)C(=O)N[C@@H](CCC(N)=O)C(=O)N[C@H](C(=O)N[C@@H](CO)C(=O)N[C@@H](CCC(N)=O)C(=O)N[C@@H](CC(N)=O)C(=O)N[C@@H](Cc1ccc(O)cc1)C(=O)NCC(=O)N[C@@H](CSCC(=O)N[C@@H](CCCNC(=N)N)C(=O)N[C@@H](CCCNC(=N)N)C(=O)N[C@@H](CCCNC(=N)N)C(=O)N[C@@H](CCCNC(=N)N)C(=O)N[C@@H](CCCNC(=N)N)C(=O)N[C@@H](CCCNC(=N)N)C(=O)N[C@@H](CCCNC(=N)N)C(=O)N[C@@H](CCCNC(=N)N)C(N)=O)C(N)=O)C(C)C)[C@@H](C)O | 11 | 0.43 | 20 | > 50 | 
13 | CSCC[C@H](N)C(=O)NCC(=O)N[C@@H](C)C(=O)N[C@@H](CCCNC(=N)N)C(=O)N[C@@H](C)C(=O)N[C@@H](CO)C(=O)N[C@H](C(=O)N[C@@H](CC(C)C)C(=O)N[C@@H](CO)C(=O)NCC(=O)NCC(=O)N[C@@H](CCC(=O)O)C(=O)N[C@@H](CC(C)C)C(=O)N[C@@H](CC(=O)O)C(=O)N[C@@H](CCCCN)C(=O)NCC(=O)N[C@@H](CSCC(N)=O)C(N)=O)C(C)C (H-MGARASVLSGGELDKGC(Cam)-NH2) |  |  | > 50 | > 50 | 
14 | CC[C@H](C)[C@H](NC(=O)[C@H](CCCCN)NC(=O)[C@H](CC(=O)O)NC(=O)[C@H](CC(C)C)NC(=O)[C@H](C)NC(=O)[C@H](CCC(=O)O)NC(=O)[C@H](CCCCN)NC(=O)[C@@H](NC(=O)[C@H](CC(=O)O)NC(=O)[C@H](CCCCN)NC(=O)[C@@H](NC(=O)[C@H](CC(=O)O)NC(=O)[C@@H](NC(=O)[C@H](CCCNC(=N)N)NC(C)=O)[C@@H](C)CC)C(C)C)[C@@H](C)O)C(=O)N[C@@H](CCC(=O)O)C(=O)NCC(=O)N[C@@H](CSCC(=O)N[C@@H](CCCNC(=N)N)C(=O)N[C@@H](CCCNC(=N)N)C(=O)N[C@@H](CCCNC(=N)N)C(=O)N[C@@H](CCCNC(=N)N)C(=O)N[C@@H](CCCNC(=N)N)C(=O)N[C@@H](CCCNC(=N)N)C(=O)N[C@@H](CCCNC(=N)N)C(=O)N[C@@H](CCCNC(=N)N)C(N)=O)C(N)=O | 27 |  | 43 | > 50 | 42
15 | CC(=O)N[C@@H](CC(C)C)C(=O)N[C@@H](CCC(=O)O)C(=O)N[C@@H](CCCNC(=N)N)C(=O)N[C@@H](Cc1ccccc1)C(=O)N[C@@H](C)C(=O)N[C@H](C(=O)N[C@@H](CC(N)=O)C(=O)N1CCC[C@H]1C(=O)NCC(=O)N[C@@H](CC(C)C)C(=O)N[C@@H](CC(C)C)C(=O)N[C@@H](CCC(=O)O)C(=O)N[C@H](C(=O)N[C@@H](CO)C(=O)N[C@@H](CCC(=O)O)C(=O)NCC(=O)N[C@@H](CSCC(=O)N[C@@H](CCCNC(=N)N)C(=O)N[C@@H](CCCNC(=N)N)C(=O)N[C@@H](CCCNC(=N)N)C(=O)N[C@@H](CCCNC(=N)N)C(=O)N[C@@H](CCCNC(=N)N)C(=O)N[C@@H](CCCNC(=N)N)C(=O)N[C@@H](CCCNC(=N)N)C(=O)N[C@@H](CCCNC(=N)N)C(N)=O)C(N)=O)[C@@H](C)O)C(C)C | 42 |  | 40 | > 50 | 42
